{"source": "patent US20120065126A1", "about": "“Pharmaceutical Compositions Containing Antifungal Peptides” (BASF SE, priority 2009, published 2012)", "key": {"Malassezia furfur": {"system": "Malassezia furfur", "assay": "Growth inhibition at equal concentrations by weight of P18, zinc pyrithione, climbazole, ketoconazole (CFU)", "format": "cell-based", "procedure": "The studies described hereinafter were conducted on the Malassezia furfur strain DSM 6170.\nFor this purpose, the procedure was as follows:\nThe growth test was effected as follows: a shake culture containing M472 Pityrosporum medium was inoculated with M. furfur and incubated with shaking at 30° C. and 200 rpm overnight.\nA 96-well microtiter plate was filled with 100 μl per well of M472 Pityrosporum medium and inoculated with M. furfur suspension from the overnight culture. The M. furfur suspension was adjusted at the start of the experiment to an optical density, measured at 600 nm, of 0.02. The concentrates of the inhibitor solutions were 1 mM in DMSO for P18 peptide and 10 mM in DMSO for zinc pyrithione, ketoconazole and climbazole. The final DMSO concentration was kept the same in all experiments.\nThe following growth was compared by measuring the optical density: • M. furfur suspension and addition of the P18 solution with a final concentration of 50 μM (corresponds to 0.0115% (w/w)) • M. furfur suspension and addition of the zinc pyrithione (ZPT) solution with a final concentration of 362 μM (comparison to the mixture containing 50 μM P18 peptide) • M. furfur suspension and addition of the ketoconazole solution with a final concentration of 216 μM (comparison to the mixture containing 50 μM P18 peptide) • M. furfur suspension and addition of the climbazole solution with a final concentration of 390 μM (comparison to the mixture containing 50 μM P18 peptide)\nThe microtiter plate was incubated with shaking at 30° C.\n[…] After incubation over the course of 6 days, the colonies on the plate were counted. The CFU was determined in order to rule out any influence of the biphasic medium, and also the growth form of M. furfur, on the optical density. The experiments were each conducted in double determination, at least in two independent experiments."}, "[1]": {"system": "Staphylococcus epidermidis (DSM 1798)", "assay": "Short-term effect (CFU)", "format": "cell-based", "conditions": "for Inhibition in words: up to 60 minutes", "procedure": "For this purpose, the procedure was as follows.\nTSBY growth medium: Ready-made TSB medium (Becton, Dickinson and Company, Sparks, USA); 17 g of pancreatin-degraded casein 3 g of pancreatin-degraded soya 2.5 g of dextrose 5 g of sodium chloride 2.5 g of dipotassium phosphate 3 g of yeast extract (Becton, Dickinson and Company, Sparks, USA) make up to 1 liter, set pH 7\nThe growth test was effected as follows: 5 ml of TSBY medium were inoculated with S. epidermidis and incubated at 37° C. and 200 rpm overnight.\n1.5 ml reaction vessels were each filled with 1 ml of TSBY medium and inoculated with S. epidermidis suspension from the overnight culture. The S. epidermidis suspension was adjusted at the start of the experiment to an optical density, measured at 600 nm, of 0.1. The concentration of the peptide solution in water or ZPT solution (zinc pyrithione, >96%, Sigma Aldrich) dissolved in DMSO was 2% (w/w).\nThe following growth was compared: • S. epidermidis suspension and addition of P18 peptide with a final concentration in the 1.5 ml reaction vessel of 50 ppm after 5 minutes, 10 minutes, 20 minutes and 60 minutes • S. epidermidis suspension and addition of P18 peptide with a final concentration in the 1.5 ml reaction vessel of 100 ppm after 5 minutes, 10 minutes, 20 minutes and 60 minutes • S. epidermidis suspension and addition of P18 peptide with a final concentration in the 1.5 ml reaction vessel of 200 ppm after 5 minutes, 10 minutes, 20 minutes and 60 minutes • S. epidermidis suspension and addition of P18 peptide with a final concentration in the 1.5 ml reaction vessel of 500 ppm after 5 minutes, 10 minutes, 20 minutes and 60 minutes • S. epidermidis suspension and addition of P18 peptide with a final concentration in the 1.5 ml reaction vessel of 1000 ppm after 5 minutes, 10 minutes, 20 minutes and 60 minutes • S. epidermidis suspension and addition of ZPT with a final concentration in the 1.5 ml reaction vessel of 50 ppm after 5 minutes, 10 minutes, 20 minutes and 60 minutes • S. epidermidis suspension and addition of ZPT with a final concentration in the 1.5 ml reaction vessel of 100 ppm after 5 minutes, 10 minutes, 20 minutes and 60 minutes • S. epidermidis suspension and addition of ZPT with a final concentration in the 1.5 ml reaction vessel of 200 ppm after 5 minutes, 10 minutes, 20 minutes and 60 minutes • S. epidermidis suspension and addition of ZPT with a final concentration in the 1.5 ml reaction vessel of 500 ppm after 5 minutes, 10 minutes, 20 minutes and 60 minutes • S. epidermidis suspension and addition of ZPT with a final concentration in the 1.5 ml reaction vessel of 1000 ppm after 5 minutes, 10 minutes, 20 minutes and 60 minutes\nThe 1.5 ml reaction vessels were incubated at room temperature.\nAfter the incubation times specified, the colony forming units (CFU) were determined by streaking 1 μl of each of the suspensions diluted in 20 μl of TSBY medium and, after incubation for 2 days, counting the colonies."}}}
{"substance": "H-KWKLFKKIPKFLHLAKKF-NH2 [P18, H-KWKLFKKIPKFLHLAKKF-NH2]", "values": [{"measurement": "Colony forming units (CFU)", "setting": "Malassezia furfur; final conc. 50 μM (0.0115% (w/w)), 24 h", "result": "1 ± 1", "unit": "CFU"}, {"measurement": "Colony forming units (CFU)", "setting": "Malassezia furfur; final conc. 50 μM (0.0115% (w/w)), 40 h", "result": "0 ± 0", "unit": "CFU"}, {"measurement": "Colony forming units after the incubation time specified", "setting": "[1]; 50 ppm, 5 minutes", "result": "221 ± 5", "unit": "CFU"}, {"measurement": "Colony forming units after the incubation time specified", "setting": "[1]; 50 ppm, 10 minutes", "result": "19 ± 3", "unit": "CFU"}, {"measurement": "Colony forming units after the incubation time specified", "setting": "[1]; 50 ppm, 20 minutes", "result": "4.75 ± 0.4", "unit": "CFU"}, {"measurement": "Colony forming units after the incubation time specified", "setting": "[1]; 50 ppm, 60 minutes", "result": "0.75 ± 0.4", "unit": "CFU"}, {"measurement": "Colony forming units after the incubation time specified", "setting": "[1]; 100 ppm, 5 minutes", "result": "171 ± 219", "unit": "CFU"}, {"measurement": "Colony forming units after the incubation time specified", "setting": "[1]; 100 ppm, 10 minutes", "result": "6.5 ± 4.2", "unit": "CFU"}, {"measurement": "Colony forming units after the incubation time specified", "setting": "[1]; 100 ppm, 20 minutes", "result": "0.5 ± 0", "unit": "CFU"}, {"measurement": "Colony forming units after the incubation time specified", "setting": "[1]; 100 ppm, 60 minutes", "result": "0 ± 0", "unit": "CFU"}, {"measurement": "Colony forming units after the incubation time specified", "setting": "[1]; 200 ppm, 5 minutes", "result": "14 ± 18", "unit": "CFU"}, {"measurement": "Colony forming units after the incubation time specified", "setting": "[1]; 200 ppm, 10 minutes", "result": "5.75 ± 4.6", "unit": "CFU"}, {"measurement": "Colony forming units after the incubation time specified", "setting": "[1]; 200 ppm, 20 minutes", "result": "0.25 ± 0.4", "unit": "CFU"}, {"measurement": "Colony forming units after the incubation time specified", "setting": "[1]; 200 ppm, 60 minutes", "result": "0 ± 0", "unit": "CFU"}, {"measurement": "Colony forming units after the incubation time specified", "setting": "[1]; 500 ppm, 5 minutes", "result": "19 ± 22", "unit": "CFU"}, {"measurement": "Colony forming units after the incubation time specified", "setting": "[1]; 500 ppm, 10 minutes", "result": "0.25 ± 0.4", "unit": "CFU"}, {"measurement": "Colony forming units after the incubation time specified", "setting": "[1]; 500 ppm, 20 minutes", "result": "0.75 ± 1.1", "unit": "CFU"}, {"measurement": "Colony forming units after the incubation time specified", "setting": "[1]; 500 ppm, 60 minutes", "result": "0 ± 0", "unit": "CFU"}, {"measurement": "Colony forming units after the incubation time specified", "setting": "[1]; 1000 ppm, 5 minutes", "result": "1.25 ± 0.4", "unit": "CFU"}, {"measurement": "Colony forming units after the incubation time specified", "setting": "[1]; 1000 ppm, 10 minutes", "result": "0 ± 0", "unit": "CFU"}, {"measurement": "Colony forming units after the incubation time specified", "setting": "[1]; 1000 ppm, 20 minutes", "result": "0 ± 0", "unit": "CFU"}, {"measurement": "Colony forming units after the incubation time specified", "setting": "[1]; 1000 ppm, 60 minutes", "result": "0 ± 0", "unit": "CFU"}]}
{"substance": "zinc pyrithione [ZPT]", "values": [{"measurement": "Colony forming units (CFU)", "setting": "Malassezia furfur; final conc. 362 μM, 24 h", "result": "60 ± 40", "unit": "CFU"}, {"measurement": "Colony forming units (CFU)", "setting": "Malassezia furfur; final conc. 362 μM, 40 h", "result": "26 ± 7", "unit": "CFU"}, {"measurement": "Inhibition in words", "setting": "[1]; 50 ppm and 100 ppm", "result": "low inhibition"}, {"measurement": "Colony forming units after the incubation time specified", "setting": "[1]; 50 ppm, 5 minutes", "result": "2000 ± 0", "unit": "CFU"}, {"measurement": "Colony forming units after the incubation time specified", "setting": "[1]; 50 ppm, 10 minutes", "result": "2000 ± 0", "unit": "CFU"}, {"measurement": "Colony forming units after the incubation time specified", "setting": "[1]; 50 ppm, 20 minutes", "result": "1033 ± 1368", "unit": "CFU"}, {"measurement": "Colony forming units after the incubation time specified", "setting": "[1]; 50 ppm, 60 minutes", "result": "522 ± 721", "unit": "CFU"}, {"measurement": "Colony forming units after the incubation time specified", "setting": "[1]; 100 ppm, 5 minutes", "result": "2000 ± 0", "unit": "CFU"}, {"measurement": "Colony forming units after the incubation time specified", "setting": "[1]; 100 ppm, 10 minutes", "result": "2000 ± 0", "unit": "CFU"}, {"measurement": "Colony forming units after the incubation time specified", "setting": "[1]; 100 ppm, 20 minutes", "result": "1200 ± 1131", "unit": "CFU"}, {"measurement": "Colony forming units after the incubation time specified", "setting": "[1]; 100 ppm, 60 minutes", "result": "707 ± 698", "unit": "CFU"}, {"measurement": "Colony forming units after the incubation time specified", "setting": "[1]; 200 ppm, 5 minutes", "result": "2000 ± 0", "unit": "CFU"}, {"measurement": "Colony forming units after the incubation time specified", "setting": "[1]; 200 ppm, 10 minutes", "result": "2000 ± 0", "unit": "CFU"}, {"measurement": "Colony forming units after the incubation time specified", "setting": "[1]; 200 ppm, 20 minutes", "result": "2000 ± 0", "unit": "CFU"}, {"measurement": "Colony forming units after the incubation time specified", "setting": "[1]; 200 ppm, 60 minutes", "result": "2000 ± 0", "unit": "CFU"}, {"measurement": "Colony forming units after the incubation time specified", "setting": "[1]; 500 ppm, 5 minutes", "result": "2000 ± 0", "unit": "CFU"}, {"measurement": "Colony forming units after the incubation time specified", "setting": "[1]; 500 ppm, 10 minutes", "result": "2000 ± 0", "unit": "CFU"}, {"measurement": "Colony forming units after the incubation time specified", "setting": "[1]; 500 ppm, 20 minutes", "result": "2000 ± 0", "unit": "CFU"}, {"measurement": "Colony forming units after the incubation time specified", "setting": "[1]; 500 ppm, 60 minutes", "result": "2000 ± 0", "unit": "CFU"}, {"measurement": "Colony forming units after the incubation time specified", "setting": "[1]; 1000 ppm, 5 minutes", "result": "2000 ± 0", "unit": "CFU"}, {"measurement": "Colony forming units after the incubation time specified", "setting": "[1]; 1000 ppm, 10 minutes", "result": "2000 ± 0", "unit": "CFU"}, {"measurement": "Colony forming units after the incubation time specified", "setting": "[1]; 1000 ppm, 20 minutes", "result": "2000 ± 0", "unit": "CFU"}, {"measurement": "Colony forming units after the incubation time specified", "setting": "[1]; 1000 ppm, 60 minutes", "result": "2000 ± 0", "unit": "CFU"}, {"measurement": "Inhibition in words", "setting": "[1]; higher concentrations (200-1000 ppm)", "result": "no significant inhibition"}]}
